T1: PTH-1 receptor (Homo sapiens, UniProt Q03431)
T1 construct: the hOB-01-C1-PS-09 cell line was selected for further characterization based on its high-level of PTH-1 receptor mRNA expression; endogenous in cells; host or cells: hOB-01-C1-PS-09 cells (ATCC PTA-785)
T1 sequence (Q03431 27-593): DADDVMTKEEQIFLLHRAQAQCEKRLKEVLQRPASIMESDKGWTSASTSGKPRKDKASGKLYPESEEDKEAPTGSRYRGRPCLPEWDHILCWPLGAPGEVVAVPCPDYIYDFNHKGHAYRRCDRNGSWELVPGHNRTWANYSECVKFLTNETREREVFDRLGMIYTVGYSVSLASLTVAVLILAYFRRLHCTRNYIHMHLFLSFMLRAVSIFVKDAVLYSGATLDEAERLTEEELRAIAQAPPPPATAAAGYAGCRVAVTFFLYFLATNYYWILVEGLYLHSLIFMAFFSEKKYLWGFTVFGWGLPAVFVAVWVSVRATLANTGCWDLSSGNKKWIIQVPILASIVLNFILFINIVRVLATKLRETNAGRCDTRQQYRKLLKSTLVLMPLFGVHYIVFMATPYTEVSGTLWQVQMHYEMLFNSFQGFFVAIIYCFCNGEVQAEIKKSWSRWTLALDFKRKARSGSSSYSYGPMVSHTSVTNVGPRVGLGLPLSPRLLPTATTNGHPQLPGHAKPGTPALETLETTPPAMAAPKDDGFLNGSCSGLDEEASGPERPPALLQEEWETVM

B1: SFRP-1/FRP-1/SARP-2: human osteoblast secreted frizzled related protein, SEQ ID NO 2, expressed from transfected cDNA in pcDNA3.1 (protein, listed as Homo sapiens)
chain: MGIGRSEGGRRGAALGVLLALGAALLAVGSASEYDYVSFQSDIGPYQSGRFYTKPPQCVDIPADLRLCHNVGYKKMVLPNLLEHETMAEVKQQASSWVPLLNKNCHAGTQVFLCSLFAPVCLDRPIYPCRWLCEAVRDSCEPVMQFFGFYWPEMLKCDKFPEGDVCIAMTPPNATEASKPQGTTVCPPCDNELKSEAIIEHLCASEFALRMKIKEVKKENGDKKIVPKKKKPLKLGPIKKKDLKKLVLYLKNGADCPCHQLDNLSHHFLIMGRKVKSQYLLTAIHKWDKKNKEFKNFMKKMKNHECPTFQSVFK

Legend:
[1] = tested on: hOB SFRP mRNA; experiment: hOB SFRP mRNA levels after treatment with various agents (method not given); assay type: cell-based, human; details: various hOB cell lines
[2] = tested on: hOB SFRP mRNA; experiment: Northern blot analysis of hOB SFRP mRNA expression; assay type: cell-based, human
Text: The hOB SFRP gene fragment was identified using RADE (rapid analysis of differential expression) technology as described by Shiue 1997 Drug Develop. Res. 41: 142–159, the whole of which is incorporated herein. Three hOB cell lines (hOB-03-C5, hOB-03-CE6 and hOB-01-C1), representing three distinct stages of differentiation (proliferative, mature and preosteocytic, respectively) were used to isolate and identify SFRP. The hOB cell lines were established and cultured as previously described (Bodine et al. 1996 J. Bone Miner. Res. 11: 806–819; Bodine et al. 1996 Endocrinology 137: 4592–4604; Bodine et al. 1997 J. Cell. Biochem. 65: 368–387). […] However, in contrast to osteosarcoma cells (Stein and Lian 1993 Endocrine Rev. 14: 424–442), the hOB cell lines were faithful to the proliferation/differentiation relationship at the nonpermissive temperature (>37° C.) when the T-antigen mutant is inactivated. The cell lines were seeded into 150 mm dishes at ˜40,000 cells/cm^2 with growth medium [D-MEM/F-12 containing 10% (v/v) heat-inactivated fetal bovine serum (FBS), 1% (v/v) Penicillin-Streptomycin and 2 mM GlutaMAX-1] and incubated overnight at 34° C. The next day, the medium was removed, the cells were rinsed with phosphate-buffered saline (PBS), 20 ml of serum-free medium was added to the dishes [phenol red-free D-MEM/F-12 (Gibco/BRL) containing 0.25% (w/v) bovine serum albumin (BSA, Pentex crystallized, Bayer), 1% (v/v) Penicillin-Streptomycin, 2 mM GlutaMAX-1, […] ascorbate-2-phosphate (Wako), and 10 nM menadione sodium bisulfite (vitamin K3)], and the dishes were incubated at 39° C. for 24 hr. The next day, the medium was removed and the cells were treated at 39° C. for an additional 24 hr with 20 ml of fresh serum-free medium containing either vehicle (Control), 8 nM human parathyroid hormone 1–34 (PTH), 100 nM prostaglandin E2 (PGE2) or 0.1 nM human transforming growth factor-β1 (TGF-β1). PTH, PGE2 and TGF-β1 are known osteogenic agents (Whitfield and Morley 1995 Trends Pharmaceut. Sci. 16:382–386; Jee and Ma 1997 Bone 21:297–304; Centrella et al. 1994 Endocrine Rev. 15:27–39). After the treatment period, the dishes were rinsed with PBS and total cellular RNA was isolated from the nontreated and treated cells using TRIzol according to the manufacturers instructions (GibcoBRL). RADE was then performed with the isolated RNA samples as above; the regulated gene fragments were identified, cloned and sequenced. These experiments identified a total of 82 differentially expressed genes. A BLAST (basic local alignment search tool) search of the public data bases was performed on the RADE-obtained gene fragments; one of the gene fragments was highly homologous to mouse SFRP-1. This gene fragment was identified during RADE using the following primer pair: 5′-[…]-3′ (HT11A)3′ end (reverse primer) and 5′-[…]-3′ (H-AP1) 5′ end (forward primer), which sequences are SEQ ID NO 11 and SEQ ID NO 12, respectively. The expression and regulation of the gene fragment having homology to mouse cDNA SFRP-1 was confirmed by Northern blot analysis.
In order to confirm the regulation of hOB SFRP gene expression by different osteogenic agents (i.e., the DNA fragment identified in Example 1, above), the hOB cell lines were treated with PTH, PGE2, and TGF-β1; RNA was then isolated for Northern hybridizations. The experiments were performed as follows. The hOB cell lines were seeded into 150 mm dishes and treated as described in Example 1, except that polyA+ RNA was isolated from total cellular RNA using Oligotex mRNA maxi kits as described by the manufacturer (Qiagen). Northern blot analysis was performed using either the excised RADE hOB SFRP gene fragment, the cloned hOB SFRP gene fragment or the cloned full-length hOB SFRP cDNA as a ^32P-labeled probe (as described in Bodine et al. 1996 J. Bone Miner. Res. 11: 806–819, which is incorporated herein). Each of these probes detected a 4.4–4.6 kb message in the hOB cells. […]

[3] = molecular target: T1, PTH-1 receptor; experiment: Intracellular cAMP assay in hOB-01-C1-PS-09 cells; assay type: cell-based; details: preincubation at 34° C.
Protocol: As mentioned above, the hOB-01-C1-PS-09 cell line was selected for further characterization based on its high-level of PTH-1 receptor mRNA expression. […] Consistent with this enhanced PTH-1 receptor expression, […] increasing concentrations of human PTH 1–34 (hPTH 1–34) for 10 min at 37° C. generates a dose-dependent 5- to 6-fold increase in intracellular cyclic-adenosine monophosphate (cAMP) levels (FIG. 24). […] Thus, both PTH-1 receptor expression and responsiveness are enhanced following inactivation of the tsA-209 T-antigen. One potential utility for this cAMP assay would be the ability to characterize the activities of PTH-analogs or -mimetics in an important target cell under conditions where levels of PTH-1 receptor expression are dramatically altered.

[4] = tested on: hOB-01-C1-PS-09 cells; experiment: Cell viability of hOB-01-C1-PS-09 cells stably transfected with hOB SFRP cDNA; assay type: cell-based, human; details: stably transfected hOB-01-C1-PS-09 cells
Text: For these experiments, the cells were stably transfected with either an hOB SFRP cDNA (i.e., SFRP-1/FRP-1/SARP-2) mammalian expression plasmid or the empty vector (i.e., pcDNA3.1). The results are presented as the % of the day 0 control cells.
For these experiments, the cells were stably transfected with either an hOB SFRP cDNA (i.e., SFRP-1/FRP-1/SARP-2) mammalian expression plasmid or the empty vector (i.e., pcDNA3.1, which is obtained from Invitrogen of Carlsbad, Calif.). Standard cloning technigues were used (See Ausubel et al. 1997 Short Protocols in M<olecular Biology, 3rd edition, Wiley {New York}). The results are presented as the % of the day 0 control cells.

[5] = tested on: Wnt signaling; experiment: TCF-luciferase reporter gene assay of Wnt signaling; assay type: cell-based, human; details: transfected cDNA, hOB-01-C1-PS-09 or hOB-02-C1-PS-02 cells
Protocol: SARP-2 or human Frzb-1 expression plasmids downregulates Wnt signaling (when compared to the pcDNA3.1 empty vector control) in the hOB cells as measured by the TCF-luciferase reporter gene assay. This assay is an authentic measurement of Wnt signaling and β-catenin nuclear activity.
In order to determine if the up-regulation of SFRP-1/FRP-1/SARP-2 gene expression results in an antagonism of the Wnt signaling pathway, hOB-03-CE6 cells were treated with PGE2 and the resulting cells probed with β-catenin monoclonal antibody. Overexpression of Wnt proteins in cells up-regulates a signaling protein known as β-catenin (reviewed in Moon et al. 1997 Cell 88: 725–728; Barth et al. 1997 Curr. Opin. Cell Biol. 9: 683–690; and Nusse 1997 Cell 89: 321–323). […] Therefore, hOB-03-CE6 cells were plated and treated with PGE2 as described in Example 1, except that total cellular protein was extracted and a Western blot analysis for β-catenin was performed using a monoclonal antibody to the protein (Transduction Laboratories) as previously described (Bodine et al. 1996 Endocrinology 137: 4592–4604; Melkonyan et al. 1997 Proc. Natl. Acad. Sci. USA 94: 13636–13641). […] Both human and rat SFRP-1/FRP-1/SARP-2, as well as human Frzb-1/FrzB/Fritz, suppressed TCF-luciferase activity in the hOB cells.

Row | Molecule | effect on hOB SFRP message expression [1] | regulation of SFRP mRNA ([2]; SaOS-2 human osteosarcoma cells, 24 hr, 37° C.) | suppression of basal hOB SFRP expression ([2]; hOB-01-C1 cells, 8 nM) [%] | increase in cAMP concentrations [3] | rate of cell death on overexpression versus empty vector [4] | TCF-luciferase activity [5]
1 | human parathyroid hormone 1–34 [PTH] | suppresses | not regulated | 35 | does not result in a subsequent increase |  | 
2 | B1 |  |  |  |  | accelerates the rate of cell death | suppressed

Source: patent publication US7098372B1, “Pharmaceutical compositions and methods of using secreted frizzled related protein” (Wyeth, priority 1999, dated 2006)
